In the test the target is T1, human GPBAR1 receptor (Homo sapiens, UniProt Q8TDU6).
T1 construct: expressed in transfected cells
T1 sequence (Q8TDU6 1-330): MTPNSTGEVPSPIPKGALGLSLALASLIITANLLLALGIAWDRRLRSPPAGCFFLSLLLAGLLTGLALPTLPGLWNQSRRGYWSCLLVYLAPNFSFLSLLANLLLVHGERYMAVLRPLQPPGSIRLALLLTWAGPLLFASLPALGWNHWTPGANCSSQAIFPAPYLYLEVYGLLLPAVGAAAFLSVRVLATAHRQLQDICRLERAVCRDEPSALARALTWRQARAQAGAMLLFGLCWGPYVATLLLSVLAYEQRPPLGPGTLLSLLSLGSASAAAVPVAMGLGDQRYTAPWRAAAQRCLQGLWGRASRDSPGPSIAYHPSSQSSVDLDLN
Put plainly: functional cAMP assay in CHO-dhfr(minus) cells expressing human GPBAR1 receptors. The class given is cell-based. Particulars: human EC50, functional cAMP assay, 30 min at 30° C. The method in brief: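 Agonist cAMP read-out: stable GPBAR1 CHO-dhfr− clone, 30 min compound exposure at 30° C following 30 min IBMX (1 mM) preincubation in Krebs Ringer bicarbonate. Time-resolved energy-transfer detection gives EC50; parental CHO cells serve as counter-screen.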

This note sets out measurements from patent US8765730B2 (Hoffmann-La Roche Inc, priority 2010, dated 2014).

Each structure is given as a SMILES string.

Compound `Cn1cc(/C(CC(c2cccc(C(=O)NCCO)c2)c2ccc(Cl)cc2F)=N/O)ccc1=O` (stereo not drawn) [Example 320, (E)-3-(1-(4-Chloro-2-fluorophenyl)-3-(hydroxyimino)-3-(1-methyl-6-oxo-1,6-dihydro-pyridin-3-yl)propyl)-N-(2-hydroxyethyl)benzamide] returned an EC50 of 3370 nM.

`CN(CCO)C(=O)c1cccc(C(C/C(=N\O)c2ccc(=O)n(C)c2)c2ccc(Cl)cc2F)c1` (stereo not drawn) [Example 321, (E)-3-(1-(4-Chloro-2-fluorophenyl)-3-(hydroxyimino)-3-(1-methyl-6-oxo-1,6-dihydropyridin-3-yl)propyl)-N-(2-hydroxyethyl)-N-methylbenzamide] registered an EC50 of 5200 nM. In the case of `Cn1cc(/C(CC(c2cccc(C(=O)N3CCOCC3)c2)c2ccc(Cl)cc2F)=N/O)ccc1=O` (stereo not drawn) [Example 322, (E)-5-(3-(4-Chloro-2-fluorophenyl)-1-(hydroxyimino)-3-(3-(morpholine-4-carbonyl)phenyl)propyl)-1-methylpyridin-2(1H)-one], the EC50 turned out to be 3960 nM. The figure for `Cc1cc(Cl)ccc1C(C/C(=N\O)c1ccc(=O)n(C)c1)c1ccc(OC(C)C)c(F)c1` (stereo not drawn) [Example 323, 5-{3-(4-Chloro-2-methyl-phenyl)-3-(3-fluoro-4-isopropoxy-phenyl)-1-[(E)-hydroxyimino]-propyl}-1-methyl-1H-pyridin-2-one] is 179 nM; for `Cc1cc(Cl)ccc1C(C/C(=N\O)c1ccc(=O)n(C)c1)c1ccc(O)c(F)c1` (stereo not drawn) [Example 324, 5-{3-(4-Chloro-2-methyl-phenyl)-3-(3-fluoro-4-hydroxy-phenyl)-1-[(E)-hydroxyimino]-propyl}-1-methyl-1H-pyridin-2-one] it is 566 nM; for `Cc1cc(Cl)ccc1C(C/C(=N\O)c1ccc(=O)n(C)c1)c1ccc(Oc2cccc(C(=O)O)c2)c(F)c1` (stereo not drawn) [Example 325, 3-{4-[1-(4-Chloro-2-methyl-phenyl)-3-[(E)-hydroxyimino]-3-(1-methyl-6-oxo-1,6-dihydro-pyridin-3-yl)-propyl]-2-fluoro-phenoxy}-benzoic acid] it is 104 nM. Turning to `Cc1cc(Cl)ccc1C(C/C(=N\O)c1ccc(=O)n(C)c1)c1ccc(Oc2ccc(Cl)c(C(=O)O)c2)c(F)c1` (stereo not drawn) [Example 326, 2-Chloro-5-{4-[1-(4-chloro-2-methyl-phenyl)-3-[(E)-hydroxyimino]-3-(1-methyl-6-oxo-1,6-dihydro-pyridin-3-yl)-propyl]-2-fluoro-phenoxy}-benzoic acid], a half-maximal effect (EC50) was put at 137 nM. As to `Cc1cc(Cl)ccc1C(C/C(=N\O)c1ccc(=O)n(C)c1)c1ccc(OCCCC(=O)O)c(F)c1` (stereo not drawn) [Example 327, 4-{4-[1-(4-Chloro-2-methyl-phenyl)-3-[(E)-hydroxyimino]-3-(1-methyl-6-oxo-1,6-dihydro-pyridin-3-yl)-propyl]-2-fluoro-phenoxy}-butyric acid], the EC50 was found to be 197 nM. The figure for `Cc1cc(Cl)ccc1C(C/C(=N\O)c1ccc(=O)n(C)c1)c1ccc(OCCO)c(F)c1` (stereo not drawn) [Example 328, 5-{3-(4-Chloro-2-methyl-phenyl)-3-[3-fluoro-4-(2-hydroxy-ethoxy)-phenyl]-1-[(E)-hydroxyimino]-propyl}-1-methyl-1H-pyridin-2-one] is 11 nM; for `Cc1cc(Cl)ccc1C(C/C(=N\O)c1ccc(=O)n(C)c1)c1ccc(OS(C)(=O)=O)c(F)c1` (stereo not drawn) [Example 329, Methanesulfonic acid 4-[1-(4-chloro-2-methyl-phenyl)-3-[(E)-hydroxyimino]-3-(1-methyl-6-oxo-1,6-dihydro-pyridin-3-yl)-propyl]-2-fluoro-phenyl ester] it is 62 nM. `Cc1ncsc1C(C/C(=N\O)c1ccc(=O)n(C)c1)c1ccc(Br)cc1` (stereo not drawn) [Example 330, (E)-5-(3-(4-Bromophenyl)-1-(hydroxyimino)-3-(4-methylthiazol-5-yl)propyl)-1-methylpyridin-2(1H)-one] yielded an EC50 of 92 nM. Compound `Cc1cc(Cl)ccc1C(C/C(=N\O)c1ccc(=O)n(C)c1)c1ccc(S(C)(=O)=O)cc1` (stereo not drawn) [Example 331, (E)-5-(3-(4-chloro-2-methylphenyl)-1-(hydroxyimino)-3-(4-(methylsulfonyl)phenyl)propyl)-1-methylpyridin-2(1H)-one] showed an EC50 of 38 nM.

On to `Cc1cc(Cl)ccc1C(C/C(=N\O)c1ccc(=O)n(C)c1)c1ccc(C(=O)NCCO)cc1` (stereo not drawn) [Example 332, (E)-4-(1-(4-Chloro-2-methylphenyl)-3-(hydroxyimino)-3-(1-methyl-6-oxo-1,6-dihydropyridin-3-yl)propyl)-N-(2-hydroxyethyl)benzamide], for which the EC50 is 129 nM.

`Cc1cc(Cl)ccc1C(C/C(=N\O)c1ccc(=O)n(C)c1)c1ccc(C(=O)NC[C@@H](O)CO)cc1` (stereo partly drawn) [Example 335, 4-((E)-1-(4-Chloro-2-methylphenyl)-3-(hydroxyimino)-3-(1-methyl-6-oxo-1,6-dihydropyridin-3-yl)propyl)-N—((R)-2,3-dihydroxypropyl)benzamide] displayed an EC50 of 113 nM. As for `Cc1cc(Cl)ccc1C(C/C(=N\O)c1ccc(=O)n(C)c1)c1ccc(C(=O)NCCS(C)(=O)=O)cc1` (stereo not drawn) [Example 336, (E)-4-(1-(4-Chloro-2-methylphenyl)-3-(hydroxyimino)-3-(1-methyl-6-oxo-1,6-dihydropyridin-3-yl)propyl)-N-(2-(methylsulfonyl)ethyl)benzamide], the figure is 330 nM; as for `Cc1cc(Cl)ccc1C(C/C(=N\O)c1ccc(=O)n(C)c1)c1ccc(CO)cc1` (stereo not drawn) [Example 337, (E)-5-(3-(4-Chloro-2-methylphenyl)-1-(hydroxyimino)-3-(4-(hydroxymethyl)phenyl)-propyl)-1-methylpyridin-2(1H)-one], 14 nM; as for `Cc1cc(Cl)ccc1C(C/C(=N\O)c1ccc(=O)n(C)c1)c1ccc(S(N)(=O)=O)cc1` (stereo not drawn) [Example 338, (E)-4-(1-(4-chloro-2-methylphenyl)-3-(hydroxyimino)-3-(1-methyl-6-oxo-1,6-dihydropyridin-3-yl)propyl)benzenesulfonamide], 60 nM. The figure for `COCCOCCn1cc(/C(CC(c2ccc(S(C)(=O)=O)cc2)c2ccc(Cl)cc2C)=N/O)ccc1=O` (stereo not drawn) [Example 339, (E)-5-(3-(4-chloro-2-methylphenyl)-1-(hydroxyimino)-3-(4-(methylsulfonyl)phenyl)propyl)-1-(2-(2-methoxyethoxy)ethyl)pyridin-2(1H)-one] is 90 nM.

The compound `CCOCCn1cc(/C(CC(c2ccc(S(C)(=O)=O)cc2)c2ccc(Cl)cc2C)=N/O)ccc1=O` (stereo not drawn) [Example 340, (E)-5-(3-(4-Chloro-2-methylphenyl)-1-(hydroxyimino)-3-(4-(methylsulfonyl)phenyl)-propyl)-1-(2-ethoxyethyl)pyridin-2(1H)-one] returned an EC50 of 221 nM. The compound `COCCn1cc(/C(CC(c2ccc(S(C)(=O)=O)cc2)c2ccc(Cl)cc2C)=N/O)ccc1=O` (stereo not drawn) [Example 341, (E)-5-(3-(4-Chloro-2-methylphenyl)-1-(hydroxyimino)-3-(4-(methylsulfonyl)phenyl)-propyl)-1-(2-methoxyethyl)pyridin-2(1H)-one] yielded an EC50 of 164 nM. Consider `Cc1cc(Cl)ccc1C(C/C(=N\O)c1ccc(=O)n(CCO)c1)c1ccc(S(C)(=O)=O)cc1` (stereo not drawn) [Example 342, (E)-5-(3-(4-Chloro-2-methylphenyl)-1-(hydroxyimino)-3-(4-(methylsulfonyl)phenyl)-propyl)-1-(2-hydroxyethyl)pyridin-2(1H)-one], for which the response was half-maximal at 993 nM (EC50). The compound `Cc1cc(Cl)ccc1C(C/C(=N\O)c1ccc(=O)n(CC(N)=O)c1)c1ccc(S(C)(=O)=O)cc1` (stereo not drawn) [Example 343, (E)-2-(5-(3-(4-Chloro-2-methylphenyl)-1-(hydroxyimino)-3-(4-(methylsulfonyl)-phenyl)propyl)-2-oxopyridin-1(2H)-yl)acetamide] registered an EC50 of 3750 nM. The figure for `Cc1cc(Cl)ccc1C(C/C(=N\O)c1ccc(=O)n(CCC(N)=O)c1)c1ccc(S(C)(=O)=O)cc1` (stereo not drawn) [Example 344, (E)-3-(5-(3-(4-Chloro-2-methylphenyl)-1-(hydroxyimino)-3-(4-(methylsulfonyl)phenyl)-propyl)-2-oxopyridin-1(2H)-yl)propanamide] is 186 nM; for `Cc1cc(Cl)ccc1C(C/C(=N\O)c1ccc(=O)n(CCC(=O)O)c1)c1ccc(S(C)(=O)=O)cc1` (stereo not drawn) [Example 345, (E)-3-(5-(3-(4-Chloro-2-methylphenyl)-1-(hydroxyimino)-3-(4-(methylsulfonyl)phenyl)-propyl)-2-oxopyridin-1(2H)-yl)propanoic acid] it is > 10000 nM; for `Cc1cc(Cl)ccc1C(C/C(=N\O)c1ccc(=O)n(C)c1)c1ccc(Oc2cccc(C(=O)O)c2)cc1` (stereo not drawn) [Example 346, 3-{4-[1-(4-Chloro-2-methyl-phenyl)-3-[(E)-hydroxyimino]-3-(1-methyl-6-oxo-1,6-dihydro-pyridin-3-yl)-propyl]-phenoxy}-benzoic acid] it is 42 nM. As for `Cc1cc(Cl)ccc1C(C/C(=N\O)c1ccc(=O)n(C)c1)c1ccc(Oc2ccc(Cl)c(C(=O)O)c2)cc1` (stereo not drawn) [Example 347, 2-Chloro-5-{4-[1-(4-chloro-2-methyl-phenyl)-3-[(E)-hydroxyimino]-3-(1-methyl-6-oxo-1,6-dihydro-pyridin-3-yl)-propyl]-phenoxy}-benzoic acid], the figure is 119 nM.

Compound `Cc1cc(Cl)ccc1C(C/C(=N\O)c1ccc(=O)n(C)c1)c1ccc(Oc2ccc(F)c(C(=O)O)c2)cc1` (stereo not drawn) [Example 348, 5-{4-[1-(4-Chloro-2-methyl-phenyl)-3-[(E)-hydroxyimino]-3-(1-methyl-6-oxo-1,6-dihydro-pyridin-3-yl)-propyl]-phenoxy}-2-fluoro-benzoic acid] displayed an EC50 of 71 nM.
